The NIST ThermoML archive (doi:10.1021/je800150h)

Assay: mn = molality of the nth substance listed, in mol/kg
Conditions: 101 kPa, Liquid; for electrical conductivity: CyberScan CON500 conductivity meter

[Cl-].[Li+] [lithium chloride] + O
Conditions | electrical conductivity [S/m] | mass density [kg/m3] | viscosity [mPa·s]
268.1 K, m1 = 0.5 | – | 1013.4 | 2.273
268.1 K, m1 = 1 | – | 1024.4 | 2.554
268.1 K, m1 = 2 | – | 1047.1 | 2.831
268.1 K, m1 = 3 | – | 1067.8 | 3.191
268.1 K, m1 = 4.5 | – | 1095.9 | 3.649
268.1 K, m1 = 6 | – | 1121.7 | 4.461
268.1 K, m1 = 8 | – | 1155.4 | 6.735
268.1 K, m1 = 11 | – | 1200.2 | 10.85
268.1 K, m1 = 14 | – | 1240.7 | 18.98
268.1 K, m1 = 17.8 | – | 1288.4 | 28.66
273.1 K, m1 = 0.5 | – | 1013.2 | 1.944
273.1 K, m1 = 1 | – | 1024.4 | 2.107
273.1 K, m1 = 2 | – | 1046.9 | 2.37
273.1 K, m1 = 3 | – | 1067.4 | 2.681
273.1 K, m1 = 4.5 | – | 1095 | 3.133
273.1 K, m1 = 6 | – | 1121.2 | 3.815
273.1 K, m1 = 8 | – | 1153.7 | 5.744
273.1 K, m1 = 11 | – | 1198.7 | 9.191
273.1 K, m1 = 14 | – | 1239.1 | 15.82
273.1 K, m1 = 17.8 | – | 1286.4 | 24.99
278.1 K, m1 = 0.5 | 2.61 | – | 1.663
278.1 K, m1 = 1 | 4.64 | 1024 | 1.784
278.1 K, m1 = 2 | 7.64 | 1046.3 | 2
278.1 K, m1 = 3 | 9.59 | 1066.4 | 2.266
278.1 K, m1 = 4.5 | 11.5 | 1094.1 | 2.69
278.1 K, m1 = 6 | 12 | 1119.8 | 3.258
278.1 K, m1 = 8 | 11.5 | 1152.6 | 4.899
278.1 K, m1 = 11 | 9.37 | 1197.1 | 7.784
278.1 K, m1 = 14 | 6.99 | 1237.4 | 13.17
278.1 K, m1 = 17.8 | 4.71 | 1284.2 | 21.79
283.1 K, m1 = 0.5 | 2.99 | 1012.5 | 1.424
283.1 K, m1 = 1 | 5.2 | 1023.3 | 1.518
283.1 K, m1 = 2 | 8.61 | 1045.3 | 1.701
283.1 K, m1 = 3 | 11 | 1065.4 | 1.936
283.1 K, m1 = 4.5 | 13 | 1092.8 | 2.303
283.1 K, m1 = 6 | 13.6 | 1118.8 | 2.777
283.1 K, m1 = 8 | 13.1 | 1151.4 | 4.17
283.1 K, m1 = 11 | 10.7 | 1195.6 | 6.579
283.1 K, m1 = 14 | 8.01 | 1235.8 | 10.97
283.1 K, m1 = 17.8 | 5.52 | 1282.2 | 19.66
288.15 K, m1 = 0.5 | 3.35 | 1011.6 | 1.243
288.15 K, m1 = 1 | 5.87 | 1022.2 | 1.346
288.15 K, m1 = 2 | 9.62 | 1044.1 | 1.502
288.15 K, m1 = 3 | 12.3 | 1064.3 | 1.729
288.15 K, m1 = 4.5 | 14.5 | 1091.5 | 2.034
288.15 K, m1 = 6 | 15.2 | 1117.4 | 2.452
288.15 K, m1 = 8 | 14.6 | 1149.8 | 3.602
288.15 K, m1 = 11 | 12.1 | 1194 | 5.63
288.15 K, m1 = 14 | 9.09 | 1234.1 | 9.142
288.15 K, m1 = 17.8 | 6.45 | 1280.2 | 17.14
293.15 K, m1 = 0.5 | 3.74 | 1010.8 | 1.087
293.15 K, m1 = 1 | 6.53 | 1021.4 | 1.16
293.15 K, m1 = 2 | 10.7 | 1043 | 1.308
293.15 K, m1 = 3 | 13.7 | 1063.1 | 1.495
293.15 K, m1 = 4.5 | 16.1 | 1090.5 | 1.777
293.15 K, m1 = 6 | 16.9 | 1116.1 | 2.131
293.15 K, m1 = 8 | 16.3 | 1148.5 | 3.199
293.15 K, m1 = 11 | 13.6 | 1192.5 | 4.898
293.15 K, m1 = 14 | 10.4 | 1232.6 | 7.966
293.15 K, m1 = 17.8 | 7.44 | 1278.3 | –
